# Earlier results, collected in US11091809B2, “Molecular diagnostic test for cancer” (ALMAC DIAGNOSTICS LIMITED, priority 2012, dated 2021).
# What was measured:
# [1] = test system: ovarian cancer; conditions: bevacizumab monotherapy
# [2] = test system: renal cancer; conditions: bevacizumab monotherapy
# [3] = test system: rectal cancer; conditions: bevacizumab monotherapy
# [4] = test system: primary peritoneal carcinoma, fallopian tube carcinoma, and epithelial ovarian carcinoma; conditions: ICON7
substance,measurement,setting,value
bevacizumab: recombinant humanised version of a murine anti-human VEGF monoclonal antibody,patients showing partial regression,[1],21%
same,patients showing partial regression,[2],10%
same,patients showing partial regression,[3],33%
same,hazard ratio for death,"[4]; bevacizumab group, patients at high risk of progression (FIGO stage IV or stage III with greater than 1.0 cm residual disease after debulking surgery)",0.64
same,hazard ratio for progression-free survival,[4]; standard chemotherapy (carboplatin and paclitaxel) and bevacizumab vs standard chemotherapy,0.81
